Results on 18 compounds are retold here after patent US10233182B2, “Substituted spirocyclic inhibitors of autotaxin” (X-Rx, Inc., priority 2014, dated 2019).

Some results are limits rather than exact numbers.

The target of this assay is Autotaxin (Homo sapiens (Human), UniProt Q13822). As to the kind of experiment: Autotaxin LPC Cascade Assay. The assay is classed as biochemical. The settings on record: Autotaxin 5 nM, LPC 100 μM, choline oxidase/HRP/Ampliflu Red fluorescence read-out, 2% DMSO, RT; read-out: IC50 ATX Activity. On the procedure: Autotaxin LPC Cascade Assay:
HA130 and Test Compounds:
Prepare a 1 mM stock of HA130 and a 3 mM stock of each compound in 100% DMSO. Perform a 1:3 serial dilution in DMSO (transfer 5 l of compound to 10 l of DMSO). Add 240 l of buffer to generate a top working concentration of 40 µM (HA130) and 120 µM (test compound) in 4% DMSO.
Ampliflu Red—Prepare a stock of 5 mM from 100 mM in 100% DMSO. Further dilute to a working concentration of 400 μM in buffer (8% DMSO).
Together with compound this yields a 2% DMSO final concentration.
Choline Oxidase/HRP—0.8 U/mL CO and 8 U/mL HRP.
Incubate for 10 mins at RT. Add 5 µl of LPC and incubate for 1 hr on the plate shaker. Prepare the CO/HRP and AR immediately prior to use. Add 2.5 l of CO/HRP and follow with 2.5 l AR. Note order of addition, CO/HRP mix before AR. Read fluorescence intensity (ex/em: 530/590 nm) kinetically for 30 min at RT on the Tecan M1000.
On to `CC(C)[C@@H](NC(=O)c1cc(C(F)(F)F)ccc1F)C(=O)N1CCC2(CC1)C(=O)N(C)C(=O)N2c1ccc(=O)[nH]c1` [Example 22, (R)-2-Fluoro-N-(3-methyl-1-(3-methyl-2,4-dioxo-1-(6-oxo-1,6-dihydropyridin-3-yl)-1,3,8-triazaspiro[4.5]decan-8-yl)-1-oxobutan-2-yl)-5-(trifluoromethyl)benzamide], for which the IC50 is ≥ 1000 nM.

In the case of `CC(C)[C@@H](NC(=O)c1cc(C(F)(F)F)ccc1F)C(=O)N1CCC2(CC1)C(=O)N(C)C(=O)N2c1ccc(=O)n(C)c1` [Example 23, (R)-2-Fluoro-N-(3-methyl-1-(3-methyl-1-(1-methyl-6-oxo-1,6-dihydropyridin-3-yl)-2,4-dioxo-1,3,8-triazaspiro[4.5]decan-8-yl)-1-oxobutan-2-yl)-5-(trifluoromethyl)benzamide], the IC50 was in the range of 500 to 1000 nM.

Turning to `CN1C(=O)N(c2ccc(=O)n(C)c2)C2(CCN(C(=O)[C@H](NC(=O)c3cc(C(F)(F)F)ccc3F)C3CCCC3)CC2)C1=O` [Example 24, (R)—N-(1-Cyclopentyl-2-(3-methyl-1-(1-methyl-6-oxo-1,6-dihydropyridin-3-yl)-2,4-dioxo-1,3,8-triazaspiro[4.5]decan-8-yl)-2-oxoethyl)-2-fluoro-5-(trifluoromethyl)benzamide], the IC50 is < 500 nM.

As to `COc1ccc(N2C(=O)N(C)C(=O)C23CCN(C(=O)[C@H](NC(=O)c2cc(C(F)(F)F)ccc2F)C(C)C)CC3)cn1` [Example 25, (R)-2-Fluoro-N-(1-(1-(6-methoxypyridin-3-yl)-3-methyl-2,4-dioxo-1,3,8-triazaspiro[4.5]decan-8-yl)-3-methyl-1-oxobutan-2-yl)-5-(trifluoromethyl)benzamide], the IC50 was < 500 nM.

For `CC(C)[C@@H](NC(=O)c1cc(C(F)(F)F)ccc1F)C(=O)N1CCC2(CC1)C(=O)N(C)C(=O)N2c1ccc(OC(F)(F)F)cc1` [Example 26, (R)-2-Fluoro-N-(3-methyl-1-(3-methyl-2,4-dioxo-1-(4-(trifluoromethoxy)phenyl)-1,3,8-triazaspiro[4.5]decan-8-yl)-1-oxobutan-2-yl)-5-(trifluoromethyl)benzamide], the IC50 was < 500 nM. For `CC(C)[C@@H](NC(=O)c1cc(C(F)(F)F)ccc1F)C(=O)N1CCC2(CC1)C(=O)N(C)C(=O)N2c1ccc2occc2c1` [Example 27, (R)-2-Fluoro-N-(3-methyl-1-(3-methyl-2,4-dioxo-1-(5-benzofuran)-1,3,8-triazaspiro[4.5]decan-8-yl)-1-oxobutan-2-yl)-5-(trifluoromethyl)benzamide], the IC50 is < 500 nM. Consider `CC(C)[C@@H](NC(=O)c1cc(C(F)(F)F)ccc1F)C(=O)N1CCC2(CC1)C(=O)N(C)C(=O)N2c1ccc2[nH]c(=O)oc2c1` [Example 28, (R)-2-Fluoro-N-(3-methyl-1-(3-methyl-2,4-dioxo-1-(2-oxo-2,3-dihydrobenzo[d]oxazol-6-yl)-1,3,8-triazaspiro[4.5]decan-8-yl)-1-oxobutan-2-yl)-5-(trifluoromethyl)benzamide], for which the IC50 was < 500 nM.

`CC(C)[C@@H](NC(=O)c1cc(C(F)(F)F)ccc1F)C(=O)N1CCC2(CC1)C(=O)N(C)C(=O)N2c1ccc2oc(=O)[nH]c2c1` [Example 29, (R)-2-Fluoro-N-(3-methyl-1-(3-methyl-2,4-dioxo-1-(2-oxo-2,3-dihydrobenzo[d]oxazol-5-yl)-1,3,8-triazaspiro[4.5]decan-8-yl)-1-oxobutan-2-yl)-5-(trifluoromethyl)benzamide]: the IC50 fell in the range of 500 to 1000 nM. On to `CC(C)[C@@H](NC(=O)c1cc(C(F)(F)F)ccc1F)C(=O)N1CCC2(CC1)C(=O)N(C)C(=O)N2c1ccc2c(c1)OCC(=O)N2` [Example 30, (R)-2-Fluoro-N-(3-methyl-1-(3-methyl-2,4-dioxo-1-(3-oxo-3,4-dihydro-2H-benzo[b][1,4]oxazin-7-yl)-1,3,8-triazaspiro[4.5]decan-8-yl)-1-oxobutan-2-yl)-5-(trifluoromethyl)benzamide], for which the IC50 was 500 to 1000 nM. Consider `CCc1ccc(F)c(C(=O)N[C@@H](C(=O)N2CCC3(CC2)C(=O)N(C)C(=O)N3c2ccc3[nH]c(=O)oc3c2)C(C)C)c1` [Example 31, (R)-5-Ethyl-2-fluoro-N-(3-methyl-1-(3-methyl-2,4-dioxo-1-(2-oxo-2,3-dihydrobenzo[d]oxazol-6-yl)-1,3,8-triazaspiro[4.5]decan-8-yl)-1-oxobutan-2-yl)benzamide], for which the IC50 is < 500 nM. For `CC(C)[C@@H](NC(=O)c1cc(C(F)(F)F)ccc1F)C(=O)N1CCC2(CC1)C(=O)N(C)C(=O)N2c1ccc2[nH]nnc2c1` [Example 32, (R)—N-(1-(1-(1H-Benzo[d][1,2,3]triazol-5-yl)-3-methyl-2,4-dioxo-1,3,8-triazaspiro [4.5]decan-8-yl)-3-methyl-1-oxobutan-2-yl)-2-fluoro-5-(trifluoromethyl)benzamide], the IC50 is < 500 nM. Take `CC(C)[C@@H](NC(=O)c1cccc(C(F)(F)F)c1)C(=O)N1CCC2(CC1)C(=O)N(C)C(=O)N2c1ccccc1` [Example 33, (R)—N-(3-Methyl-1-(3-methyl-2,4-dioxo-1-phenyl-1,3,8-triazaspiro[4.5]decan-8-yl)-1-oxobutan-2-yl)-3-(trifluoromethyl)benzamide]: the IC50 fell in the range of 500 to 1000 nM.

Consider `CCc1cccc(C(=O)N[C@@H](C(=O)N2CCC3(CC2)C(=O)N(C)C(=O)N3c2ccccc2)C(C)C)c1F` [Example 34, (R)-3-Ethyl-2-fluoro-N-(3-methyl-1-(3-methyl-2,4-dioxo-1-phenyl-1,3,8-triazaspiro[4.5]decan-8-yl)-1-oxobutan-2-yl)benzamide], for which the IC50 was ≥ 1000 nM. To `CC(C)[C@@H](NC(=O)c1ccc(Cl)c(Cl)c1)C(=O)N1CCC2(CC1)C(=O)N(C)C(=O)N2c1ccccc1` [Example 35, (R)-3,4-Dichloro-N-(3-methyl-1-(3-methyl-2,4-dioxo-1-phenyl-1,3,8-triazaspiro[4.5]decan-8-yl)-1-oxobutan-2-yl)benzamide] belongs ≥ 1000 nM. As for `CC(C)[C@@H](NC(=O)c1cc(Cl)ccc1Cl)C(=O)N1CCC2(CC1)C(=O)N(C)C(=O)N2c1ccccc1` [Example 36, (R)-2,5-Dichloro-N-(3-methyl-1-(3-methyl-2,4-dioxo-1-phenyl-1,3,8-triazaspiro[4.5]decan-8-yl)-1-oxobutan-2-yl)benzamide], the IC50 was ≥ 1000 nM. In the case of `CCc1ccc(F)c(C(=O)N[C@@H](C(=O)N2CCC3(CC2)C(=O)N(C)C(=O)N3c2ccccc2)[C@H](C)OC)c1` [Example 37, 5-Ethyl-2-fluoro-N-((2R,3S)-3-methoxy-1-(3-methyl-2,4-dioxo-1-phenyl-1,3,8-triazaspiro[4.5]decan-8-yl)-1-oxobutan-2-yl)benzamide] it was < 500 nM; in that of `CCc1cc(F)cc(C(=O)N[C@@H](C(=O)N2CCC3(CC2)C(=O)N(C)C(=O)N3c2ccccc2)[C@H](C)OC)c1` [Example 38, 3-Ethyl-5-fluoro-N-((2R,3S)-3-methoxy-1-(3-methyl-2,4-dioxo-1-phenyl-1,3,8-triazaspiro[4.5]decan-8-yl)-1-oxobutan-2-yl)benzamide], ≥ 1000 nM. On to `CCc1ccc(F)c(C(=O)N[C@@H](C(=O)N2CCC3(CC2)C(=O)N(C)C(=O)N3c2ccccc2)C(C)C)c1` [Example 39, (R)-5-Ethyl-2-fluoro-N-(3-methyl-1-(3-methyl-2,4-dioxo-1-phenyl-1,3,8-triazaspiro[4.5]decan-8-yl)-1-oxobutan-2-yl)benzamide], for which the IC50 is < 500 nM.
